Like-named read-outs stand apart in the source and are kept apart here.
Key:
human FAK [1] = biological target: T1, human FAK (Homo sapiens (Human), UniProt Q05397); test: biochemical
Experimental: (§1) The ability of compounds to inhibit the kinase activity of baculovirus-expressed human FAK and PYK2 was measured using the 96-well plate TRF assay system described above for JAK2. […] For the FAK kinase assay, the reaction mixture (total volume=100 μL/well) contained 20 mM HEPES (pH 7.2), 10 μM ATP, 5 mM MgCl2, 0.5 mM DTT, 0.1% BSA, and test compound (diluted in DMSO; 2.5% DMSO final in assay). For PYK2, the 100 μL assay solution consisted of 20 mM HEPES (pH 7.2), 3 μM ATP, 5 mM MnCl2, 0.1% BSA, and test compound (diluted in DMSO; 2.5% DMSO final in assay). Enzyme (10 ng/mL FAK or 25 ng/mL PYK2) was added and the reaction was allowed to proceed at room temperature for 30 min. Detection of the phosphorylated product was performed by adding 100 μL/well of Eu—N1 labeled PY100 antibody diluted 1:75000 in 0.25% BSA in TBS-T (PerkinElmer #AD0041). […] Inhibition data were analyzed using ActivityBase and IC50 curves generated using XLFit.

human JAK2 [2] = biological target: T2, human JAK2 (Homo sapiens (Human), UniProt O60674); test: biochemical
human FAK [3] = biological target: T1, human FAK; conditions: read-out: FAK IC50
Experimental: as §1

human JAK2 [4] = biological target: T2, human JAK2; conditions: read-out: JAK2 IC50

T2 sequence (O60674 815-1132): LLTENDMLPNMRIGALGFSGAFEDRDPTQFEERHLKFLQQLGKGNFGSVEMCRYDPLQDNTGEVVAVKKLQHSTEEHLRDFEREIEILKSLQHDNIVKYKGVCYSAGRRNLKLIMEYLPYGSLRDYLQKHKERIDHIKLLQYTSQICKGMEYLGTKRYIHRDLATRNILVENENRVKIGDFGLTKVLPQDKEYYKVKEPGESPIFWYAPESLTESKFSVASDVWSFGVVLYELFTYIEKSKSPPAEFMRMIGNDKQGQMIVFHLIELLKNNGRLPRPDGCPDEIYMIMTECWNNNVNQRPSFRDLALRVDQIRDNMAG
T1 sequence (Q05397 whole entry): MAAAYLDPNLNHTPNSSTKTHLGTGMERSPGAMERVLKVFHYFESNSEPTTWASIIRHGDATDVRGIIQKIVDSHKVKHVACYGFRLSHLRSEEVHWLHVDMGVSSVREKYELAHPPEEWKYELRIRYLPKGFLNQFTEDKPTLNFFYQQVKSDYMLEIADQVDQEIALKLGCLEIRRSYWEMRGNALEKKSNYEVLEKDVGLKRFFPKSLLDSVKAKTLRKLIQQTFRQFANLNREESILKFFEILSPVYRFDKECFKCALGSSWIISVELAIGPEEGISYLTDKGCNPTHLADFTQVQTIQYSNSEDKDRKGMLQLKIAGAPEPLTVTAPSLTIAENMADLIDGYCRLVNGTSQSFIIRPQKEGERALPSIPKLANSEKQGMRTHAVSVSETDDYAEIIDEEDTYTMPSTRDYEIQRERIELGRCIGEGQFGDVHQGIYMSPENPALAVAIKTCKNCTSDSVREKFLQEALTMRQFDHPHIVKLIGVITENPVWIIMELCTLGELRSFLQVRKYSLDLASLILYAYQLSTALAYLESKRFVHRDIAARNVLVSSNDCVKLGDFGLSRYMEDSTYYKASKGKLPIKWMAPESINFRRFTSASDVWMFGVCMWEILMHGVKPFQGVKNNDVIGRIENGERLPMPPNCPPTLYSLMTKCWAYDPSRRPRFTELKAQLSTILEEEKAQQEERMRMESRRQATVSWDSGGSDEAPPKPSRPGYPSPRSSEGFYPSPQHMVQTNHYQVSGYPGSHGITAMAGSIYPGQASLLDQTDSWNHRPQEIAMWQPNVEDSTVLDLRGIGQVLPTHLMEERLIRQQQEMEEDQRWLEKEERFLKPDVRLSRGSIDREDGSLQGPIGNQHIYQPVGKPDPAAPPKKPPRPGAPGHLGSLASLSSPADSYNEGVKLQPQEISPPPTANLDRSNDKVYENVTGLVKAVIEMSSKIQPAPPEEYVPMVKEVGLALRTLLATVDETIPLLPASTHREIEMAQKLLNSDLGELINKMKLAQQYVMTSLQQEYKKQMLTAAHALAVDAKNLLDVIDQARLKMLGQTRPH

SMILES	IC50 (human FAK [1]) [nM]	IC50 (human JAK2 [2]) [nM]	IC50 (human FAK [3]) [nM]	IC50 (human JAK2 [4]) [nM]
CS(=O)(=O)c1ccc(-c2cccn3nc(Nc4cccc([C@@H]5CCNC[C@@H]5O)c4)nc23)cc1 (racemic) [Example 188, (±)-(cis)-4-{3-[8-(4-Methanesulfonyl-phenyl)-[1,2,4]triazolo[1,5-a]pyridin-2-ylamino]-phenyl}-piperidin-3-ol]	1940	1.43	–	–
CS(=O)(=O)c1ccc(-c2cccn3nc(Nc4cccc(N5CCC(N6CCOCC6)CC5)c4)nc23)cc1 [Example 57, [8-(4-Methanesulfonyl-phenyl)-[1,2,4]triazolo[1,5-a]pyridin-2-yl]-[3-(4-morpholin-4-yl-piperidin-1-yl)-phenyl]-amine]	–	0.5	1180	–
CN1CCN(c2cccc(Nc3nc4c(NCc5ccc(F)cc5)cccn4n3)c2)CC1 [Example 396, N(8)-(4-Fluoro-benzyl)-N(2)-[3-(4-methyl-piperazin-1-yl)-phenyl]-[1,2,4]triazolo[1,5-a]pyridine-2,8-diamine]	–	–	10000	1430
COc1cccc(CNc2cccn3nc(Nc4ccnc(C)c4)nc23)c1 [Example 397, N(8)-(3-Methoxy-benzyl)-N(2)-(2-methyl-pyridin-4-yl)-[1,2,4]triazolo[1,5-a]pyridine-2,8-diamine]	–	–	10000	592
COc1cccc(CNc2cccn3nc(Nc4cccnc4)nc23)c1 [Example 398, N(8)-(3-Methoxy-benzyl)-N(2)-pyridin-3-yl-[1,2,4]triazolo[1,5-a]pyridine-2,8-diamine]	–	–	10000	816
COc1ccccc1CNc1cccn2nc(Nc3cccnc3)nc12 [Example 400, N(8)-(2-Methoxy-benzyl)-N(2)-pyridin-3-yl-[1,2,4]triazolo[1,5-a]pyridine-2,8-diamine]	–	–	3120	32.3
COc1ccc(Nc2nc3c(NCc4ccccc4OC)cccn3n2)cn1 [Example 402, N(8)-(2-Methoxy-benzyl)-N(2)-(6-methoxy-pyridin-3-yl)-[1,2,4]triazolo[1,5-a]pyridine-2,8-diamine]	–	–	3000	42.7
COc1ccccc1CNc1cccn2nc(Nc3ccc(C)nc3)nc12 [Example 403, N(8)-(2-Methoxy-benzyl)-N(2)-(6-methyl-pyridin-3-yl)-[1,2,4]triazolo[1,5-a]pyridine-2,8-diamine]	–	–	1880	27.6
COc1ccccc1CNc1cccn2nc(Nc3ccnc(C)c3)nc12 [Example 404, N(8)-(2-Methoxy-benzyl)-N(2)-(2-methyl-pyridin-4-yl)-[1,2,4]triazolo[1,5-a]pyridine-2,8-diamine]	–	–	2580	24.7
COc1cccc(CNc2cccn3nc(Nc4ccc(C)nc4)nc23)c1 [Example 405, N(8)-(3-Methoxy-benzyl)-N(2)-(6-methyl-pyridin-3-yl)-[1,2,4]triazolo[1,5-a]pyridine-2,8-diamine]	–	–	10000	1020
CS(=O)(=O)c1ccc(-c2cccn3nc(NCCc4ccccn4)nc23)cc1 [Example 406, [8-(4-Methanesulfonyl-phenyl)-[1,2,4]triazolo[1,5-a]pyridin-2-yl]-(2-pyridin-2-yl-ethyl)-amine]	–	–	10000	10000
CS(=O)(=O)c1ccc(-c2cccn3nc(NCCc4cccnc4)nc23)cc1 [Example 407, [8-(4-Methanesulfonyl-phenyl)-[1,2,4]triazolo[1,5-a]pyridin-2-yl]-(2-pyridin-3-yl-ethyl)-amine]	–	–	10000	1980
CS(=O)(=O)c1ccc(-c2cccn3nc(NCc4cccnc4)nc23)cc1 [Example 408, [8-(4-Methanesulfonyl-phenyl)-[1,2,4]triazolo[1,5-a]pyridin-2-yl]-pyridin-3-ylmethyl-amine]	–	–	10000	2760
CS(=O)(=O)c1ccc(-c2cccn3nc(NCc4ccccn4)nc23)cc1 [Example 409, [8-(4-Methanesulfonyl-phenyl)-[1,2,4]triazolo[1,5-a]pyridin-2-yl]-pyridin-2-ylmethyl-amine]	–	–	10000	6500
CCN1CCP(=O)(c2ccc(Nc3nc4c(-c5ccc(S(C)(=O)=O)cc5)cccn4n3)cc2)CC1 [Example 411, N-[4-(1-ethyl-4-oxido-1,4-azaphosphinan-4-yl)phenyl]-8-[4-(methylsulfonyl)phenyl][1,2,4]triazolo[1,5-a]pyridin-2-amine]	–	–	1860	1.62

Reference: patent US8501936B2 (priority 2009, dated 2013)
